This test addresses GLP-1R (Homo sapiens, UniProt P43220). Nature of the test: GLP-1R Activation - cAMP Assay. As to conditions: each compound run on one of the two cAMP assays (Assay 1 or Assay 2, not specified). Type of test: cell-based. Put shortly: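 CHO cells stably expressing GLP-1R, plated at 1,000 cells/well overnight, then equilibrated 1 h in HBSS with 20 mM Hepes and 0.1% BSA. Agonist added as 10-point dose response for 30 min at 37 °C. cAMP measured by HTRF (Cisbio Gs Dynamic kit); EC50 from sigmoidal fit.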

Where [1] appears, read: cAMP increase in CHO cells stably expressing GLP-1R.

pEC50: −log10 of the molar value.

This note sets out measurements from patent US12570642B2, “GLP-IR modulating compounds” (Gilead Sciences, Inc., priority 2021, dated 2026).

The pEC50 is the negative decadic logarithm of the EC50, by convention in mol/L.

Sequence of GLP-1R (P43220 24-463): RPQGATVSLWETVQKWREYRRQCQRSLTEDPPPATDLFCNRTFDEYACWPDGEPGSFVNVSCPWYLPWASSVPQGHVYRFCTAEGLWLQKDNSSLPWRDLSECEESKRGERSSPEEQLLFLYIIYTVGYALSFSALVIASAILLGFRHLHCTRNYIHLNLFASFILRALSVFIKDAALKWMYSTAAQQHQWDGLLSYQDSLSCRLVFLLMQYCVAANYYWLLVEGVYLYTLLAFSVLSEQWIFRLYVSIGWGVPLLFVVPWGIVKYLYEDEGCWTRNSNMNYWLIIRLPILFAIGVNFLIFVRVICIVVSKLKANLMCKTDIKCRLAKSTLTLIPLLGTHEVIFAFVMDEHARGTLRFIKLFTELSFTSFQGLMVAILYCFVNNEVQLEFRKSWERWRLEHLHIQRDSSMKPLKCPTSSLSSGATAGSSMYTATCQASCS

Under setting [1], `COCCn1c(Cc2cc(F)c(-c3ccc(F)c(OCc4cnc(-n5ccnn5)cc4Cl)c3)cc2F)nc2ccc(C(=O)O)cc21` [Example 390, 2-((3′-((4-chloro-6-(1H-1,2,3-triazol-1-yl)pyridin-3-yl)methoxy)-2,4′,5-trifluoro-[1,1′-biphenyl]-4-yl)methyl)-1-(2-methoxyethyl)-1H-benzo[d]imidazole-6-carboxylic acid] showed a pEC50 of 8.51. In the case of `CC1(C)COC[C@H]1n1c(Cc2cc(F)c(-c3ccnc(OCc4ccc(C(F)(F)F)cc4)n3)cc2F)nc2ccc(C(=O)O)cc21` [Example 537, (S)-2-(2,5-difluoro-4-(2-((4-(trifluoromethyl)benzyl)oxy)pyrimidin-4-yl)benzyl)-1-(4,4-dimethyltetrahydrofuran-3-yl)-1H-benzo[d]imidazole-6-carboxylic acid], the pEC50 under setting [1] was 9.92. Regarding `CC1(C)COC[C@H]1n1c(Cc2cc(F)c(-c3cccc(OCc4ccccc4F)n3)cc2F)nc2ccc(C(=O)O)cc21` [Example 478, (S)-2-(2,5-difluoro-4-(6-((2-fluorobenzyl)oxy)pyridin-2-yl)benzyl)-1-(4,4-dimethyltetrahydrofuran-3-yl)-1H-benzo[d]imidazole-6-carboxylic acid], under setting [1], the pEC50 is 9.60. Compound `CS(=O)(=O)N1Cc2ccc(COc3cccc(-c4cc(F)c(Cc5nc6ccc(C(=O)O)cc6n5C[C@@H]5CCO5)cc4F)n3)cc2C1` [Example 519, (S)-2-(2,5-difluoro-4-(6-((2-(methylsulfonyl)isoindolin-5-yl)methoxy)pyridin-2-yl)benzyl)-1-(oxetan-2-ylmethyl)-1H-benzo[d]imidazole-6-carboxylic acid] showed a pEC50 under setting [1] of 9.99. On to `N#Cc1ccc(COc2cccc(-c3cc(F)c(Cc4nc5ccc(C(=O)O)cc5n4[C@@H]4COC[C@@H]4C(F)F)cc3F)n2)c(F)c1` (racemic) [Example 267, 2-(4-(6-((4-cyano-2-fluorobenzyl)oxy)pyridin-2-yl)-2,5-difluorobenzyl)-1-((4R)-4-(difluoromethyl)tetrahydrofuran-3-yl)-1H-benzo[d]imidazole-6-carboxylic acid], for which the pEC50 under setting [1] was 10.26.

`Cc1ccc(COc2cccc(-c3cc(F)c(Cc4nc5ccc(C(=O)O)cc5n4[C@@H]4COCC4(C)C)cc3F)n2)cc1` [Example 361, (S)-2-(2,5-difluoro-4-(6-((4-methylbenzyl)oxy)pyridin-2-yl)benzyl)-1-(4,4-dimethyltetrahydrofuran-3-yl)-1H-benzo[d]imidazole-6-carboxylic acid] gave a pEC50 under setting [1] of 9.88. The compound `CC1(C)COC[C@H]1n1c(Cc2cc(F)c(-c3cccc(OCc4cnc(-n5ccnn5)cc4Cl)n3)cc2F)nc2c(Cl)cc(C(=O)O)cc21` [Example 528, (S)-4-chloro-2-(4-(6-((4-chloro-6-(1H-1,2,3-triazol-1-yl)pyridin-3-yl)methoxy)pyridin-2-yl)-2,5-difluorobenzyl)-1-(4,4-dimethyltetrahydrofuran-3-yl)-1H-benzo[d]imidazole-6-carboxylic acid] gave a pEC50 under setting [1] of 10.33.

Under setting [1], `Cc1ncc(-c2ccc(COc3cccc(-c4cc(F)c(Cc5nc6ccc(C(=O)O)cc6n5[C@@H]5COCC5(C)C)cc4F)n3)c(F)c2)o1` [Example 445, (S)-2-(2,5-difluoro-4-(6-((2-fluoro-4-(2-methyloxazol-5-yl)benzyl)oxy)pyridin-2-yl)benzyl)-1-(4,4-dimethyltetrahydrofuran-3-yl)-1H-benzo[d]imidazole-6-carboxylic acid] had a pEC50 of 9.55. Against the preceding compound, the pEC50 is 0.78 log units lower. Under setting [1], `CC1(C)COC[C@H]1n1c(Cc2cc(F)c(-c3ccc(F)c(OCc4ccc(-n5ccnn5)cc4)n3)cc2F)nc2c(F)cc(C(=O)O)cc21` [Example 177, (S)-2-(4-(6-((4-(1H-1,2,3-triazol-1-yl)benzyl)oxy)-5-fluoropyridin-2-yl)-2,5-difluorobenzyl)-1-(4,4-dimethyltetrahydrofuran-3-yl)-4-fluoro-1H-benzo[d]imidazole-6-carboxylic Acid] gave a negative logarithm of the EC50 (pEC50) of 10.68. For the compound `CO[C@@]1(C)COC[C@@H]1n1c(Cc2cc(F)c(-c3cccc(OCc4ccc(C#N)cc4F)n3)cc2F)nc2ccc(C(=O)O)cc21` (single isomer, unassigned) [Example 313], the pEC50 under setting [1] was 8.94. Compound `COCCn1c(Cc2cc(C)c(-c3cccc(OCc4ccc(C#N)cc4F)n3)cc2Cl)nc2c(F)cc(C(=O)O)cc21` [Example 227, 2-(2-chloro-4-(6-((4-cyano-2-fluorobenzyl)oxy)pyridin-2-yl)-5-methylbenzyl)-4-fluoro-1-(2-methoxyethyl)-1H-benzo[d]imidazole-6-carboxylic acid] showed a pEC50 under setting [1] of 8.32.

As to `CC1(C)COC[C@H]1n1c(Cn2cc(F)c(-c3cccc(OCc4ccc(Cl)cc4F)n3)cc2=O)nc2c(F)cc(C(=O)O)cc21` [Example 137, (S)-2-((6-((4-chloro-2-fluorobenzyl)oxy)-5′-fluoro-2′-oxo-[2,4′-bipyridin]-1′(2′H)-yl)methyl)-1-(4,4-dimethyltetrahydrofuran-3-yl)-4-fluoro-1H-benzo[d]imidazole-6-carboxylic Acid], the pEC50 under setting [1] was 10.41. `CC1(C)COC[C@H]1n1c(Cc2cc(F)c(-c3cccc(OCc4ccc(Cl)cc4)n3)cc2F)nc2ccc(C(=O)O)nc21` [Example 438, (S)-2-(4-(6-((4-chlorobenzyl)oxy)pyridin-2-yl)-2,5-difluorobenzyl)-3-(4,4-dimethyltetrahydrofuran-3-yl)-3H-imidazo[4,5-b]pyridine-5-carboxylic acid] gave a pEC50 under setting [1] of 9.28. The same measure, in the same setting: the same measure for `N#Cc1ccc(COc2cccc(-c3cc(F)c(Cc4nc5ccc(C(=O)O)cc5n4C4CCCC4)cc3F)n2)c(F)c1` [Example 6, 2-(4-(6-((4-cyano-2-fluorobenzyl)oxy)pyridin-2-yl)-2,5-difluorobenzyl)-1-cyclopentyl-1H-benzo[d]imidazole-6-carboxylic acid]: 8.07; for `CO[C@H](C)Cn1c(Cc2cc(F)c(-c3cccc(OCc4ccc(-n5ccnn5)nc4)n3)cc2F)nc2c(F)cc(C(=O)O)cc21` [Example 352, (R)-2-(4-(6-((6-(1H-1,2,3-triazol-1-yl)pyridin-3-yl)methoxy)pyridin-2-yl)-2,5-difluorobenzyl)-4-fluoro-1-(2-methoxypropyl)-1H-benzo[d]imidazole-6-carboxylic acid]: 9.27; for `Cc1cc(Cc2nc3c(F)cc(C(=O)O)cc3n2[C@@H]2COCC2(C)C)c(Cl)cc1-c1ccnc(OCc2ccc(Cl)cc2)n1` [Example 212, (S)-2-(2-chloro-4-(2-((4-chlorobenzyl)oxy)pyrimidin-4-yl)-5-methylbenzyl)-1-(4,4-dimethyltetrahydrofuran-3-yl)-4-fluoro-1H-benzo[d]imidazole-6-carboxylic acid]: 9.42.

Compound `COCCn1c(Cc2cc(F)c(-c3cccc(OCc4ccc(C#N)cc4F)n3)cc2F)nc2c(-c3cnn(CCN4CCOCC4)c3)cc(C(=O)O)cc21` [Example 56, 2-(4-(6-((4-cyano-2-fluorobenzyl)oxy)pyridin-2-yl)-2,5-difluorobenzyl)-1-(2-methoxyethyl)-4-(1-(2-morpholinoethyl)-1H-pyrazol-4-yl)-1H-benzo[d]imidazole-6-carboxylic Acid] had a negative-log EC50 (pEC50) under setting [1] of 6.04. Turning to `CC1(C)COC[C@H]1n1c(Cc2cc(F)c(-c3cccc(OCc4ccc(C#N)c(F)c4F)n3)cc2F)nc2ccc(C(=O)O)cc21` [Example 492, (S)-2-(4-(6-((4-cyano-2,3-difluorobenzyl)oxy)pyridin-2-yl)-2,5-difluorobenzyl)-1-(4,4-dimethyltetrahydrofuran-3-yl)-1H-benzo[d]imidazole-6-carboxylic acid], the pEC50 under setting [1] is 9.72. Still for that read-out and setting: the figure for `N#Cc1ccc(COc2cccc(-c3cc(F)c(Cc4nc5ccc(C(=O)O)cc5n4[C@@H]4COC[C@H]4C(F)F)cc3F)n2)c(F)c1` (racemic) [Example 269, 2-(4-(6-((4-cyano-2-fluorobenzyl)oxy)pyridin-2-yl)-2,5-difluorobenzyl)-1-((3S,4S)-4-(difluoromethyl)tetrahydrofuran-3-yl)-1H-benzo[d]imidazole-6-carboxylic acid] is 9.79.

With `CC(C)(C)OC(=O)N[C@@H]1COC[C@@H]1n1c(Cc2cc(F)c(-c3cccc(OCc4ccc(C#N)cc4F)n3)cc2F)nc2ccc(C(=O)O)cc21` (racemic) [Example 72, 1-((3R,4S)-4-((tert-butoxycarbonyl)amino)tetrahydrofuran-3-yl)-2-(4-(6-((4-cyano-2-fluorobenzyl)oxy)pyridin-2-yl)-2,5-difluorobenzyl)-1H-benzo[d]imidazole-6-carboxylic Acid], the negative logarithm of the EC50 (pEC50) ([…]) was 7.43. As to `COc1cc(-c2cnn(C)c2)ncc1COc1cccc(-c2cc(F)c(Cc3nc4ccc(C(=O)O)cc4n3C[C@@H](C)OC)cc2F)n1` [Example 91, (R)-2-(2,5-difluoro-4-(6-((4-methoxy-6-(1-methyl-1H-pyrazol-4-yl)pyridin-3-yl)methoxy)pyridin-2-yl)benzyl)-1-(2-methoxypropyl)-1H-benzo[d]imidazole-6-carboxylic Acid], the pEC50 under setting [1] was 8.69. Still for that read-out and setting: the same measure for `COCCn1c(Cc2cc(F)c(-c3cccc(OCc4ccc(-n5ccnc5)cc4F)n3)cc2F)nc2ccc(C(=O)O)cc21` [Example 61]: 9.08. As to `COCCn1c(Cc2cc(F)c(-c3cccc(OCc4cnc(-c5cnn(C)c5)cn4)n3)cc2F)nc2ccc(C(=O)O)cc21` [Example 38, 2-(2,5-difluoro-4-(6-((5-(1-methyl-1H-pyrazol-4-yl)pyrazin-2-yl)methoxy)pyridin-2-yl)benzyl)-1-(2-methoxyethyl)-1H-benzo[d]imidazole-6-carboxylic Acid], under setting [1], the pEC50 was 8.40. This pEC50 is 0.68 log units lower than that of the compound before. As for `CC1(C)COC[C@H]1n1c(Cc2cc(F)c(-c3ccc(F)c(OCc4ccc(Cl)cc4F)n3)cc2F)nc2ccc(C(=O)O)cc21` [Example 497, (S)-2-(4-(6-((4-chloro-2-fluorobenzyl)oxy)-5-fluoropyridin-2-yl)-2,5-difluorobenzyl)-1-(4,4-dimethyltetrahydrofuran-3-yl)-1H-benzo[d]imidazole-6-carboxylic acid], the pEC50 under setting [1] was 9.69.
